Measurements: publication PMC12040169 (PLOS Biology, 2025)

Test: in vitro
Conditions: human, hela cells, % viability

SMILES | viability at 28.5 h, 10 µM
CC(CCc1ccccc1)N(C)CCN(C)C (centres unmarked) [CBK261933] | 80.5%
Cc1nnc2sc(-c3ccncc3)nn12 [CBK269553] | 84.6%
CCN(CC)C1=NC(=S)N(C)C(c2ccc(OC)cc2)S1 (centres unmarked) [CBK006804] | 99.3%
O=C(COc1ccc(S(=O)(=O)N2CCc3ccccc32)cc1Cl)NCc1ccco1 [CBK268293] | 102%
CCc1cc(CNS(=O)(=O)c2ccc(C)s2)on1 [CBK283066] | 99.6%
Cc1nc2c(c(=O)[nH]1)CCN(CCC(C)c1ccccc1)C2 (centres unmarked) [CBK282387] | 81%
COCC1(C(=O)N2CC(=O)N(c3ccccc3C#N)CC2C)CCC1 (centres unmarked) [CBK307159] | 89%
Cc1nnc(N2C(=O)c3oc4ccc(Cl)cc4c(=O)c3C2c2cccc(OCc3ccccc3)c2)s1 (centres unmarked) [CBK266870] | 95%
CCOC(=O)c1ccccc1NS(=O)(=O)c1cc(Cl)sc1Cl [CBK045448] | 85.8%
CC(=O)Nc1ccc(NC(=O)CC2(CC(=O)O)CCCCC2)cc1 [CBK299816] | 102%
C=CCN1C(=O)C2(CC(=O)N(CCOc3ccccc3)C2=O)c2ccccc21 (centres unmarked) [CBK075159] | 101%
c1ccc(N2CCN(c3nc(-c4ccoc4)cn4ccnc34)CC2)nc1 [CBK066522] | 99.7%
O=C(NCc1ccccc1)c1ccc(NC(=O)c2cc(-n3cnnc3)ccc2Cl)cc1 [CBK267896] | 99.2%
O=C(NCCc1c[nH]cn1)N1CCN(c2ccc(F)cc2)CC1 [CBK156394] | 85.1%
COc1ccccc1-c1ncc(OCCN2CCOCC2)nc1N [CBK145072] | 113%
Cc1nc(C)n(CC2CCCN(Cc3cn4ccccc4n3)C2)n1 (centres unmarked) [CBK304028] | 88.3%
COC[C@H]1CCCN1C(=O)[C@@H](C)C1CC[C@@]2(C)CC[C@H](NC(C)=O)[C@@H](C)[C@@H]2[C@H]1O (some centres unmarked) [CBK289438] | 110%
COc1ccc(CNS(=O)(=O)c2cc(OCC(N)=O)c(C)cc2Cl)cc1 [CBK266495] | 110%
CN1CCN(c2ccc(S(=O)(=O)Nc3cc(C(=O)O)cc(C(=O)O)c3)cc2[N+](=O)[O-])CC1 [CBK263862] | 96.8%
COc1ccc(-c2ccc(C(=O)N(C)C)c(N(C)C(C)=O)n2)cc1 [CBK076500] | 99.1%
CCOC(=O)CN1CC(O)CC1c1cccc(C(F)(F)F)c1 (centres unmarked) [CBK304169] | 97.9%
Cc1ccc(OCC(=O)N2CCCCC2c2nccs2)cc1 (centres unmarked) [CBK305091] | 88.7%

SMILES | viability at 28.5 h, 10 µM
O=C1CCC(C(=O)Nc2cnc(-c3cccc(C(F)(F)F)c3)c(-c3cccnc3)n2)=NN1 [CBK036950] | 88.3%
CC(C)(C(=O)N1CCC(C(=O)NCCc2c[nH]c3ccccc23)C1)c1ccc(F)cc1 (centres unmarked) [CBK286034] | 102%
O=C(NCCN1CCCC1=O)Nc1ccccc1 [CBK263517] | 116%
COc1ccc(-n2nnnc2SCc2ccc(Cl)cc2)cc1 [CBK101068] | 60.7%
Cn1nccc1NS(=O)(=O)c1ccc(-c2cnco2)s1 [CBK062088] | 94.4%
CCCOc1ccc(C(=O)NCc2ccccn2)cc1 [CBK269789] | 93.9%
CN1CCN(Cc2oc(CO)cc(=O)c2O)CC1 [CBK288394] | 89.6%
Cn1cc(CN2CCCC(c3cccc(Cc4ccc(Cl)cc4)n3)C2)cn1 (centres unmarked) [CBK286242] | 81.8%
Cc1nc(C2CCN(C(=O)CC3CCCC3)CC2)ncc1C(=O)Nc1ccc(Cl)cc1 [CBK285847] | 97.8%
Cc1scc(C(=O)NCc2ccccn2)c1-c1ccccc1 [CBK268107] | 89%
O=C(Nc1cccc(S(=O)(=O)N2CCOCC2)c1)c1cc2ccccc2oc1=O [CBK268170] | 107%
COc1ccc2c(c1)C(C[C@H]1CN(C(=O)C3CC3)CC[C@H]1CC(=O)O)=NCC2 [CBK289157] | 85.7%
COc1ccc(C)cc1S(=O)(=O)N(C)CC(=O)Nc1cccc(Cl)c1 [CBK269493] | 88.5%
Cc1ccc2nc(CSc3ncnc4sc(C)cc34)[nH]c2c1 [CBK270047] | 97.1%
CN1CCN(NC(=O)COc2cccc(C(F)(F)F)c2)CC1 [CBK268124] | 90.2%
O=c1c(N2CCCNCC2)nccn1CCOc1ccc(Br)cc1 [CBK028613T] | 95%
COc1ccc(NC(=O)c2cc(-c3cccnc3)nc3c(C)c(C)ccc23)c(OC)c1 [CBK267746] | 96.2%
CCOC(=O)Cn1c(-c2cccs2)cc2cccnc21 [CBK282267] | 95.2%
C[C@H](Nc1cncc(-c2cccc(C(=O)NCCO)c2)n1)c1ccccc1 [CBK066007] | 108%
COc1ccc(C2c3c(-c4cc(C)c(C)cc4O)n[nH]c3C(=O)N2Cc2cccnc2)cc1OC (centres unmarked) [CBK268846] | 106%
O=C(Nc1cccc2cccnc12)c1ccc(Cl)c(Cl)c1 [CBK261318] | 91.5%
NCCC(=O)N(CCc1cc(C(F)(F)F)cc(C(F)(F)F)c1)c1cccc2ccccc12 [CBK000695T] | 0%
